Data on one compound can be found in paper PMC5218480 (PLoS ONE, 2017).

The subject of this assay is MV-4-11 cells. As to the kind of experiment: Gene expression microarray analysis (Affymetrix PrimeView) and GSEA. The class given is cell-based, human. Details: RFU PODN (11730768_x_at) / Fold change /veh PODN (11730768_x_at) / RFU LINC00158 (11744669_a_at) / Fold change /veh LINC00158 (11744669_a_at) / RFU DUSP10 (11751237_a_at) / Fold change /veh DUSP10 (11751237_a_at) / RFU ID3 (11757404_x_at) / Fold change /veh ID3 (11757404_x_at) / RFU PLEKHG5 (11737974_s_at) / Fold change /veh PLEKHG5 (11737974_s_at) / RFU LRRC4B (11730491_at) / Fold change /veh LRRC4B (11730491_at) / RFU GIMAP4 (11747438_a_at) / Fold change /veh GIMAP4 (11747438_a_at) / RFU KRT8 (11758183_x_at) / Fold change /veh KRT8 (11758183_x_at) / RFU CNN1 (11734310_a_at) / Fold change /veh CNN1 (11734310_a_at) / RFU VPS37D (11726825_at) / Fold change /veh VPS37D (11726825_at) / RFU C10orf10 (11716522_x_at) / Fold change /veh C10orf10 (11716522_x_at) / RFU KIR2DL2 /// KIR2DL4 /// KIR2DL5A /// KIR2DL5B /// KIR2DS1 /// KIR2DS2 /// KIR2DS3 /// KIR2DS4 /// KIR3DL3 /// KIR3DL3 /// KIR3DS1 (11738374_at) / Fold change /veh KIR2DL2 /// KIR2DL4 /// KIR2DL5A /// KIR2DL5B /// KIR2DS1 /// KIR2DS2 /// KIR2DS3 /// KIR2DS4 /// KIR3DL3 /// KIR3DL3 /// KIR3DS1 (11738374_at) / RFU C1QL1 (11718748_at) / Fold change /veh C1QL1 (11718748_at) / RFU TMPRSS4 (11747572_a_at) / Fold change /veh TMPRSS4 (11747572_a_at) / RFU HAMP (11756126_x_at) / Fold change /veh HAMP (11756126_x_at) / RFU RNFT2 (11725882_a_at) / Fold change /veh RNFT2 (11725882_a_at) / RFU NR4A2 (11747474_a_at) / Fold change /veh NR4A2 (11747474_a_at) / RFU ABCC12 (11746883_a_at) / Fold change /veh ABCC12 (11746883_a_at) / RFU TMEM136 (11760407_x_at) / Fold change /veh TMEM136 (11760407_x_at) / RFU CLDN22 /// WWC2 (11732394_at) / Fold change /veh CLDN22 /// WWC2 (11732394_at) / RFU HLA-DPB1 (11760878_x_at) / Fold change /veh HLA-DPB1 (11760878_x_at) / RFU SPINT1 (11716480_a_at) / Fold change /veh SPINT1 (11716480_a_at) / RFU GAP43 (11754022_s_at) / Fold change /veh GAP43 (11754022_s_at) / RFU A4GNT (11735810_at) / Fold change /veh A4GNT (11735810_at) / RFU PRB3 (11715151_x_at) / Fold change /veh PRB3 (11715151_x_at) / RFU TUBB4B (11761932_at) / Fold change /veh TUBB4B (11761932_at) / RFU CAPN14 (11732068_a_at) / Fold change /veh CAPN14 (11732068_a_at) / RFU TMCC2 (11721928_a_at) / Fold change /veh TMCC2 (11721928_a_at) / RFU IRGQ (11745062_a_at) / Fold change /veh IRGQ (11745062_a_at) / RFU FAM174B (11720279_a_at) / Fold change /veh FAM174B (11720279_a_at) / RFU TMPRSS4 (11748680_a_at) / Fold change /veh TMPRSS4 (11748680_a_at) / RFU FAM212B (11763350_a_at) / Fold change /veh FAM212B (11763350_a_at) / RFU PLEKHG5 (11743358_a_at) / Fold change /veh PLEKHG5 (11743358_a_at) / RFU ZSCAN30 (11745921_a_at) / Fold change /veh ZSCAN30 (11745921_a_at) / RFU CMKLR1 (11741424_a_at) / Fold change /veh CMKLR1 (11741424_a_at) / RFU LOC101060620 /// MAPK8IP1 (11723275_at) / Fold change /veh LOC101060620 /// MAPK8IP1 (11723275_at) / RFU SPTSSB (11747773_x_at) / Fold change /veh SPTSSB (11747773_x_at) / RFU PRSS12 (11739890_at) / Fold change /veh PRSS12 (11739890_at) / RFU BIN1 (11741810_x_at) / Fold change /veh BIN1 (11741810_x_at) / RFU WNT11 (11732464_a_at) / Fold change /veh WNT11 (11732464_a_at) / RFU C10orf10 (11716521_a_at) / Fold change /veh C10orf10 (11716521_a_at) / RFU C5orf56 (11738089_at) / Fold change /veh C5orf56 (11738089_at) / RFU CYB561 (11721691_x_at) / Fold change /veh CYB561 (11721691_x_at) / RFU ANKRD19P (11752326_a_at) / Fold change /veh ANKRD19P (11752326_a_at) / RFU OR2T12 /// OR2T33 /// OR2T8 (11738714_s_at) / Fold change /veh OR2T12 /// OR2T33 /// OR2T8 (11738714_s_at) / RFU VCAN (11748164_a_at) / Fold change /veh VCAN (11748164_a_at) / RFU JSRP1 (11732532_at) / Fold change /veh JSRP1 (11732532_at) / RFU KRTAP10-11 (11738290_x_at) / Fold change /veh KRTAP10-11 (11738290_x_at) / RFU MYO3A (11730013_a_at) / Fold change /veh MYO3A (11730013_a_at) / RFU EBF3 (11725865_a_at) / Fold change /veh EBF3 (11725865_a_at) / RFU CAMK2N1 (11719241_x_at) / Fold change /veh CAMK2N1 (11719241_x_at) / RFU C5orf56 (11738088_a_at) / Fold change /veh C5orf56 (11738088_a_at) / RFU OLFML3 (11715873_a_at) / Fold change /veh OLFML3 (11715873_a_at) / RFU LOC100653217 /// NTM (11731650_a_at) / Fold change /veh LOC100653217 /// NTM (11731650_a_at) / RFU MAPK11 (11762145_a_at) / Fold change /veh MAPK11 (11762145_a_at) / RFU FIZ1 (11724087_x_at) / Fold change /veh FIZ1 (11724087_x_at) / RFU OASL (11726364_x_at) / Fold change /veh OASL (11726364_x_at) / RFU SOX15 (11748057_x_at) / Fold change /veh SOX15 (11748057_x_at) / RFU CD79A (11719716_a_at) / Fold change /veh CD79A (11719716_a_at) / RFU HIST1H1D (11736915_at) / Fold change /veh HIST1H1D (11736915_at) / RFU CASKIN2 (11723855_a_at) / Fold change /veh CASKIN2 (11723855_a_at) / RFU LOC730098 (11760151_x_at) / Fold change /veh LOC730098 (11760151_x_at) / RFU OR4N2 (11742367_at) / Fold change /veh OR4N2 (11742367_at) / RFU PRRT2 (11749266_a_at) / Fold change /veh PRRT2 (11749266_a_at) / RFU SNX32 (11753110_a_at) / Fold change /veh SNX32 (11753110_a_at) / RFU CDHR5 (11726645_a_at) / Fold change /veh CDHR5 (11726645_a_at) / RFU RCAN1 (11760418_a_at) / Fold change /veh RCAN1 (11760418_a_at) / RFU FAM167A (11723789_a_at) / Fold change /veh FAM167A (11723789_a_at) / RFU FAM26E (11764081_at) / Fold change /veh FAM26E (11764081_at) / RFU ISYNA1 (11749810_s_at) / Fold change /veh ISYNA1 (11749810_s_at) / RFU ACY1 (11761880_at) / Fold change /veh ACY1 (11761880_at) / RFU 11764098_at / Fold change /veh 11764098_at / RFU SAMD14 (11745864_x_at) / Fold change /veh SAMD14 (11745864_x_at) / RFU NPB (11741838_a_at) / Fold change /veh NPB (11741838_a_at) / RFU TMPRSS6 (11731388_a_at) / Fold change /veh TMPRSS6 (11731388_a_at) / RFU KRTAP10-2 (11738614_at) / Fold change /veh KRTAP10-2 (11738614_at) / RFU ARHGAP8 /// PRR5-ARHGAP8 (11727945_x_at) / Fold change /veh ARHGAP8 /// PRR5-ARHGAP8 (11727945_x_at) / RFU KRTAP5-7 /// NADSYN1 (11734609_at) / Fold change /veh KRTAP5-7 /// NADSYN1 (11734609_at) / RFU RASL12 (11751679_a_at) / Fold change /veh RASL12 (11751679_a_at) / RFU CDKN2B (11736163_a_at) / Fold change /veh CDKN2B (11736163_a_at) / RFU PRF1 (11729649_at) / Fold change /veh PRF1 (11729649_at) / RFU, ZNF638 /// ZNF638-IT1 / Fold change vs veh, ZNF638 /// ZNF638-IT1 / RFU, PANK3 / Fold change vs veh, PANK3 / RFU, SH3YL1 / Fold change vs veh, SH3YL1 / RFU, ZEB2 / Fold change vs veh, ZEB2 / RFU, NRIP1 / Fold change vs veh, NRIP1 / RFU, PTTG1IP / Fold change vs veh, PTTG1IP / RFU, CAPN2 / Fold change vs veh, CAPN2 / RFU, MED14 / Fold change vs veh, MED14 / RFU, SNORA58 / Fold change vs veh, SNORA58 / RFU, C1orf63 / Fold change vs veh, C1orf63 / RFU, LRRFIP1 / Fold change vs veh, LRRFIP1 / RFU, NDUFAF7 / Fold change vs veh, NDUFAF7 / RFU, SLC12A2 / Fold change vs veh, SLC12A2 / RFU, IBTK / Fold change vs veh, IBTK / RFU, ESF1 / Fold change vs veh, ESF1 / Fold change vs veh, TMEM50B / RFU, TAOK1 / Fold change vs veh, TAOK1 / RFU, ACBD3 / Fold change vs veh, ACBD3 / RFU, TMA16 / Fold change vs veh, TMA16 / RFU, RWDD3 / Fold change vs veh, RWDD3 / RFU, BCAT1 / Fold change vs veh, BCAT1 / RFU, EDEM3 / Fold change vs veh, EDEM3 / RFU, TMEM33 / Fold change vs veh, TMEM33 / RFU, WDR75 / Fold change vs veh, WDR75 / RFU, AHCTF1 / Fold change vs veh, AHCTF1 / RFU, TFRC / Fold change vs veh, TFRC / RFU, ZDHHC17 / Fold change vs veh, ZDHHC17 / RFU, NOM1 / Fold change vs veh, NOM1 / RFU, ARL8B / Fold change vs veh, ARL8B / RFU, ZBTB11 / Fold change vs veh, ZBTB11 / RFU, TAMM41 / Fold change vs veh, TAMM41 / RFU, KIAA1704 /// LOC100996395 / Fold change vs veh, KIAA1704 /// LOC100996395 / RFU, ING1 / Fold change vs veh, ING1 / RFU, TRMT61B / Fold change vs veh, TRMT61B / RFU, FUBP3 / Fold change vs veh, FUBP3 / RFU, TP53 / Fold change vs veh, TP53 / RFU, TNKS2 / Fold change vs veh, TNKS2 / RFU, ZFP14 / Fold change vs veh, ZFP14 / RFU, ACTR2 / Fold change vs veh, ACTR2 / RFU, PPP3R1 / Fold change vs veh, PPP3R1 / RFU, PIK3R1 / Fold change vs veh, PIK3R1 / RFU, HNRNPA1 / Fold change vs veh, HNRNPA1 / RFU, RNF170 / Fold change vs veh, RNF170 / RFU, ZNF28 / Fold change vs veh, ZNF28 / RFU, RNGTT / Fold change vs veh, RNGTT / RFU, OGT / Fold change vs veh, OGT / RFU, BRD1 / Fold change vs veh, BRD1 / RFU, MARS / Fold change vs veh, MARS / RFU, ZNF655 / Fold change vs veh, ZNF655 / RFU, FAHD1 / Fold change vs veh, FAHD1 / RFU, BDP1 / Fold change vs veh, BDP1 / RFU, LRRCC1 / Fold change vs veh, LRRCC1 / RFU, ARID1A / Fold change vs veh, ARID1A / RFU, ZNF146 / Fold change vs veh, ZNF146 / RFU, ZNF330 / Fold change vs veh, ZNF330 / RFU, GPN3 / Fold change vs veh, GPN3 / RFU, C9orf123 / Fold change vs veh, C9orf123 / RFU, N4BP2L2 / Fold change vs veh, N4BP2L2 / RFU, ARFIP1 / Fold change vs veh, ARFIP1 / RFU, FAM179B / Fold change vs veh, FAM179B / RFU, BCL10 / Fold change vs veh, BCL10 / RFU, UHRF1BP1L / Fold change vs veh, UHRF1BP1L / RFU, BET1 / Fold change vs veh, BET1 / RFU, CNOT2 / Fold change vs veh, CNOT2 / RFU, ZNF268 / Fold change vs veh, ZNF268 / Fold change vs veh, ZNF507 / RFU, DGCR2 / Fold change vs veh, DGCR2 / RFU, WDSUB1 / Fold change vs veh, WDSUB1 / Fold change vs veh, HSP90B1 /// MIR3652 / RFU, ADSS / Fold change vs veh, ADSS / RFU, GK / Fold change vs veh, GK / RFU, ZNF148 / Fold change vs veh, ZNF148 / RFU, TAF9 / Fold change vs veh, TAF9 / RFU, SLC1A5 / Fold change vs veh, SLC1A5 / RFU, SLMO2 / Fold change vs veh, SLMO2 / RFU, ABCC4 / Fold change vs veh, ABCC4 / RFU, LOC101060439 /// RAP1B / Fold change vs veh, LOC101060439 /// RAP1B / RFU, RFX7 / Fold change vs veh, RFX7 / RFU, GTPBP10 / Fold change vs veh, GTPBP10 / RFU, CNEP1R1 / Fold change vs veh, CNEP1R1 / RFU, BIVM-ERCC5 /// ERCC5 / Fold change vs veh, BIVM-ERCC5 /// ERCC5 / RFU, ILF3 / Fold change vs veh, ILF3 / RFU 11762660_at / Fold change /veh 11762660_at / RFU VCAN (11757783_s_at) / Fold change /veh VCAN (11757783_s_at) / RFU DDX43 (11728927_at) / Fold change /veh DDX43 (11728927_at) / RFU KRT8 (11758188_x_at) / Fold change /veh KRT8 (11758188_x_at) / RFU NKD1 (11759106_at) / Fold change /veh NKD1 (11759106_at) / RFU SRD5A1 (11742802_a_at) / Fold change /veh SRD5A1 (11742802_a_at) / RFU TPSAB1 /// TPSB2 (11721975_s_at) / Fold change /veh TPSAB1 /// TPSB2 (11721975_s_at) / RFU GSTM3 (11746129_a_at) / Fold change /veh GSTM3 (11746129_a_at) / RFU IL23R (11737362_x_at) / Fold change /veh IL23R (11737362_x_at) / RFU TMEM51 (11727254_a_at) / Fold change /veh TMEM51 (11727254_a_at) / RFU PIWIL2 (11732686_x_at) / Fold change /veh PIWIL2 (11732686_x_at) / RFU ORM1 (11744905_x_at) / Fold change /veh ORM1 (11744905_x_at) / RFU CCDC152 (11743942_at) / Fold change /veh CCDC152 (11743942_at) / RFU ECM1 (11717891_a_at) / Fold change /veh ECM1 (11717891_a_at) / RFU IL23R (11748794_a_at) / Fold change /veh IL23R (11748794_a_at) / RFU TNFAIP8L3 (11732012_x_at) / Fold change /veh TNFAIP8L3 (11732012_x_at) / RFU MBOAT4 (11741988_at) / Fold change /veh MBOAT4 (11741988_at) / RFU 11764193_at / Fold change /veh 11764193_at / RFU TMEM53 (11763286_at) / Fold change /veh TMEM53 (11763286_at) / RFU MAGEB2 (11727129_at) / Fold change /veh MAGEB2 (11727129_at) / RFU TMEM200A (11744735_a_at) / Fold change /veh TMEM200A (11744735_a_at) / RFU CCDC152 (11751479_a_at) / Fold change /veh CCDC152 (11751479_a_at) / RFU FAM211A (11726209_a_at) / Fold change /veh FAM211A (11726209_a_at) / RFU RGS16 (11746705_a_at) / Fold change /veh RGS16 (11746705_a_at) / RFU VCAN (11755009_s_at) / Fold change /veh VCAN (11755009_s_at) / RFU RHOB (11743442_s_at) / Fold change /veh RHOB (11743442_s_at) / RFU RGS16 (11720943_a_at) / Fold change /veh RGS16 (11720943_a_at) / RFU RGS16 (11720944_at) / Fold change /veh RGS16 (11720944_at) / RFU, VPS4B / Fold change vs veh, VPS4B / RFU, CREB1 / Fold change vs veh, CREB1 / RFU, DNAJC13 / Fold change vs veh, DNAJC13 / RFU, GNAQ / Fold change vs veh, GNAQ / RFU, CDK5R1 / Fold change vs veh, CDK5R1 / RFU, ZRANB3 / Fold change vs veh, ZRANB3 / RFU, CUL4A / Fold change vs veh, CUL4A / RFU, CCNY / Fold change vs veh, CCNY / RFU, UFL1 / Fold change vs veh, UFL1 / RFU, COG3 / Fold change vs veh, COG3 / RFU, DIAPH2 / Fold change vs veh, DIAPH2 / RFU, SKA2 / Fold change vs veh, SKA2 / RFU, AFF3 / Fold change vs veh, AFF3 / RFU, LMF1 / Fold change vs veh, LMF1 / RFU, IPO11 / Fold change vs veh, IPO11 / RFU, DFFB / Fold change vs veh, DFFB / RFU, FOXP1 / Fold change vs veh, FOXP1 / RFU, CARD8 / Fold change vs veh, CARD8 / RFU, STRN3 / Fold change vs veh, STRN3 / RFU, ADK / Fold change vs veh, ADK / RFU, RASSF2 / Fold change vs veh, RASSF2 / RFU, WIPF1 / Fold change vs veh, WIPF1 / RFU, LARP1B / Fold change vs veh, LARP1B / RFU, RASA1 / Fold change vs veh, RASA1 / RFU, RB1 / Fold change vs veh, RB1 / RFU, PPFIA1 / Fold change vs veh, PPFIA1 / RFU, MAT2A / Fold change vs veh, MAT2A / RFU, CCT5 / Fold change vs veh, CCT5 / RFU, WDR92 / Fold change vs veh, WDR92 / RFU, CUX1 / Fold change vs veh, CUX1 / RFU, TTC7A / Fold change vs veh, TTC7A / RFU, TMEM135 / Fold change vs veh, TMEM135 / RFU, DEPTOR / Fold change vs veh, DEPTOR / RFU, CPM / Fold change vs veh, CPM / RFU, DNAJB6 / Fold change vs veh, DNAJB6 / RFU, CACNA2D3 / Fold change vs veh, CACNA2D3 / RFU, DTX4 / Fold change vs veh, DTX4 / RFU, TFCP2 / Fold change vs veh, TFCP2 / RFU, GMCL1 /// GMCL1P1 / Fold change vs veh, GMCL1 /// GMCL1P1 / RFU, AEBP2 / Fold change vs veh, AEBP2 / RFU, SNHG1 /// SNORD22 /// SNORD25 /// SNORD26 /// SNORD27 /// SNORD28 /// SNORD29 /// SNORD31 / Fold change vs veh, SNHG1 /// SNORD22 /// SNORD25 /// SNORD26 /// SNORD27 /// SNORD28 /// SNORD29 /// SNORD31 / Fold change (Aza/veh), C12orf56 (ProbeSet 11735607_a_at) / Fold change (ACY-1035/veh), C12orf56 (ProbeSet 11735607_a_at) / Fold change (Aza/veh), FGFR1OP (ProbeSet 11751329_s_at) / Fold change (ACY-1035/veh), FGFR1OP (ProbeSet 11751329_s_at) / Fold change (Aza/veh), VPS36 (ProbeSet 11739960_a_at) / Fold change (ACY-1035/veh), VPS36 (ProbeSet 11739960_a_at) / RFU SYPL1 (11715823_x_at) / Fold change /veh SYPL1 (11715823_x_at) / RFU IGFBP7 (11715501_s_at) / Fold change /veh IGFBP7 (11715501_s_at) / RFU REEP3 (11722064_at) / Fold change /veh REEP3 (11722064_at) / RFU IGLL1 (11728026_x_at) / Fold change /veh IGLL1 (11728026_x_at): dose or concentration left out as unconfirmed. The conditions noted are these: MV-4-11 cells, 48 hours.

Consider `Nc1ncn([C@@H]2O[C@H](CO)[C@@H](O)[C@H]2O)c(=O)n1` [azacitidine], for which the “RFU ORM1 (11744905_x_at)” value amounted to 10.48 RFU.
